# Reference: PubChem BioAssay AID330 (DTP/NCI, 2004)
# Several values for one entry are separate records, joined by “and”; a condition that tells them apart may be missing. Identical values can stand only once. Inconclusive results and toxic doses are left out.
# System: P388 leukemia ip, CD2F1 mice, survival T/C
# Assay: NCI In Vivo Anticancer Drug Screen. Data for tumor model P388 Leukemia (intraperitoneal) in CD2F1 (CDF1) mice
# Conditions: endpoint: median survival time, higher = longer survival
# Outline: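 Mice carrying the transplanted tumor received test compound or vehicle. Survival was recorded in each group, and the value is the treated-group measurement divided by that of the vehicle-treated control group.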
# [1] = dose: 50.0 mg/kg/injection, schedule: Q01DX009 (ip), vehicle: Klucel (hydroxypropylcellulose) (HPC)
# [2] = dose: 100.0 mg/kg/injection, schedule: Q01DX009 (ip), vehicle: Klucel (hydroxypropylcellulose) (HPC)
# [3] = dose: 200.0 mg/kg/injection, schedule: Q01DX009 (ip), vehicle: Klucel (hydroxypropylcellulose) (HPC)
# [4] = dose: 50.0 mg/kg/injection, schedule: Q01DX005 (ip), vehicle: saline with Tween-80
# [5] = dose: 100.0 mg/kg/injection, schedule: Q01DX005 (ip), vehicle: saline with Tween-80
# [6] = dose: 200.0 mg/kg/injection, schedule: Q01DX005 (ip), vehicle: saline with Tween-80
# [7] = dose: 25.0 mg/kg/injection, schedule: Q04DX003 (ip), vehicle: saline with Tween-80
# [8] = dose: 50.0 mg/kg/injection, schedule: Q04DX003 (ip), vehicle: saline with Tween-80
# [9] = dose: 100.0 mg/kg/injection, schedule: Q04DX003 (ip), vehicle: saline with Tween-80
# [10] = dose: 200.0 mg/kg/injection, schedule: Q04DX003 (ip), vehicle: saline with Tween-80
# [11] = dose: 60.0 mg/kg/injection, schedule: Q01DX005 (ip), vehicle: saline with Tween-80
# [12] = dose: 120.0 mg/kg/injection, schedule: Q01DX005 (ip), vehicle: saline with Tween-80
# [13] = dose: 240.0 mg/kg/injection, schedule: Q01DX005 (ip), vehicle: saline with Tween-80
structure (smiles),measurement,setting,value
CC(=O)OC(CCCCCCCCCCCCC(C)C)CC(=O)O (stereo not given),T/C,"dose: 8.13 mg/kg/injection, schedule: Q01DX005 (ip), vehicle: Klucel + Tween-80",102 % of control
same,T/C,"dose: 16.25 mg/kg/injection, schedule: Q01DX005 (ip), vehicle: Klucel + Tween-80",98 % of control
same,T/C,"dose: 32.5 mg/kg/injection, schedule: Q01DX005 (ip), vehicle: Klucel + Tween-80",90 % of control
same,T/C,"dose: 65.0 mg/kg/injection, schedule: Q01DX005 (ip), vehicle: Klucel + Tween-80",90 % of control
CCCCCCC1(/C=C\c2ccc(Cl)cc2Cl)OCCO1,T/C,[1],103 % of control
same,T/C,[2],110 % of control
same,T/C,[3],101 % of control
CCC[CH2][Sn]1([CH2]CCC)[O]C(=O)C[S]1,T/C,"dose: 0.75 mg/kg/injection, schedule: Q01DX009 (ip), vehicle: saline",100 % of control
same,T/C,"dose: 1.5 mg/kg/injection, schedule: Q01DX009 (ip), vehicle: saline",108 % of control
same,T/C,"dose: 2.0 mg/kg/injection, schedule: Q01DX009 (ip), vehicle: saline with Tween-80",115 % of control
same,T/C,"dose: 2.0 mg/kg/injection, schedule: Q04DX003 (ip), vehicle: saline with Tween-80",118 % of control
same,T/C,"dose: 4.5 mg/kg/injection, schedule: Q04DX003 (ip), vehicle: saline with Tween-80",150 % of control
O=C1c2ccccc2C(O)(c2ccc(Cl)cc2)c2ccc(Cl)cc21 (stereo not given),T/C,[4],95 % of control
same,T/C,[5],98 % of control
same,T/C,[6],101 % of control
N=c1ncn(C2OC(CO)C(O)C2O)c2nc(Br)[nH]c12 (stereo not given),T/C,[7],100 % of control
same,T/C,[8],105 % of control
same,T/C,[9],100 % of control
same,T/C,[10],98 % of control
COc1cc(OC)c(C(=O)/C=C/c2ccncc2)cc1C(=O)O,T/C,"dose: 50.0 mg/kg/injection, schedule: Q01DX009 (ip), vehicle: suspension in saline",114 % of control and 119 % of control
same,T/C,"dose: 100.0 mg/kg/injection, schedule: Q01DX009 (ip), vehicle: suspension in saline",123 % of control and 124 % of control
O=c1ccnc(Sc2ccc([N+](=O)[O-])cc2[N+](=O)[O-])[nH]1,T/C,[9],99 % of control
same,T/C,[10],99 % of control
Cc1nnc(Cc2ccco2)c2n[nH]c(C)c12,T/C,[1],96 % of control
same,T/C,[2],99 % of control
same,T/C,[3],100 % of control
O=C(Nc1ccc(Cl)cc1C(=O)c1ccccn1)c1ccccc1,T/C,"dose: 12.5 mg/kg/injection, schedule: Q04DX003 (ip), vehicle: saline with Tween-80",107 % of control
same,T/C,[7],93 % of control
same,T/C,[8],108 % of control
same,T/C,[9],94 % of control
same,T/C,[10],97 % of control
C=C(Cn1cc(F)c(=O)n(CC(=C)C(=O)OCC)c1=O)C(=O)OCC,T/C,"dose: 11.25 mg/kg/injection, schedule: Q04DX002 (ip), vehicle: distilled water + Tween-80",100 % of control
same,T/C,"dose: 22.5 mg/kg/injection, schedule: Q04DX002 (ip), vehicle: distilled water + Tween-80",93 % of control
same,T/C,"dose: 45.0 mg/kg/injection, schedule: Q04DX002 (ip), vehicle: distilled water + Tween-80",95 % of control
same,T/C,"dose: 90.0 mg/kg/injection, schedule: Q04DX002 (ip), vehicle: distilled water + Tween-80",90 % of control
same,T/C,"dose: 180.0 mg/kg/injection, schedule: Q04DX002 (ip), vehicle: distilled water + Tween-80",86 % of control
C=C1C(=O)OC2C[C@]3(C)C(CC12)C(=C)C(O)C[C@@H]3OC(=O)C(C)CC (stereo not given in full),T/C,[4],105 % of control
same,T/C,[5],103 % of control
same,T/C,[6],111 % of control
CCOC(=O)C(=C=[N-])[n+]1ccc(C)cc1,T/C,"dose: 6.25 mg/kg/injection, schedule: Q01DX009 (ip), vehicle: saline sonified",90 % of control
same,T/C,"dose: 12.5 mg/kg/injection, schedule: Q01DX009 (ip), vehicle: saline sonified",90 % of control
same,T/C,"dose: 25.0 mg/kg/injection, schedule: Q01DX009 (ip), vehicle: saline sonified",90 % of control
CCOC(=O)CC1CCCN1 (stereo not given),T/C,"dose: 25.0 mg/kg/injection, schedule: Q01DX005 (ip), vehicle: saline",110 % of control
same,T/C,"dose: 50.0 mg/kg/injection, schedule: Q01DX005 (ip), vehicle: saline",101 % of control
same,T/C,"dose: 100.0 mg/kg/injection, schedule: Q01DX005 (ip), vehicle: saline",97 % of control
same,T/C,"dose: 200.0 mg/kg/injection, schedule: Q01DX005 (ip), vehicle: saline",106 % of control
O=S(=O)(C#Cc1ccccc1)C(F)(F)C(F)(F)C(F)(F)C(F)(F)F,T/C,"dose: 100.0 mg/kg/injection, schedule: Q01DX001 (ip), vehicle: saline",116 % of control
same,T/C,"dose: 200.0 mg/kg/injection, schedule: Q01DX001 (ip), vehicle: saline",115 % of control
same,T/C,"dose: 400.0 mg/kg/injection, schedule: Q01DX001 (ip), vehicle: saline",102 % of control
S=C(N/N=C\c1nc2ccccc2c2ccccc12)Nc1ccc(Cl)cc1,T/C,"dose: 100.0 mg/kg/injection, schedule: Q04DX002 (ip), vehicle: Klucel (hydroxypropylcellulose) (HPC)",90 % of control
same,T/C,"dose: 200.0 mg/kg/injection, schedule: Q04DX002 (ip), vehicle: Klucel (hydroxypropylcellulose) (HPC)",96 % of control
same,T/C,"dose: 400.0 mg/kg/injection, schedule: Q04DX002 (ip), vehicle: Klucel (hydroxypropylcellulose) (HPC)",96 % of control
S=c1nc(-c2ccccc2)oc(=NC2CCCCC2)n1C1CCCCC1,T/C,[4],98 % of control
same,T/C,[5],101 % of control
same,T/C,[6],109 % of control
OC(c1cc(-c2ccc(C(F)(F)F)cc2)nc(C(F)(F)F)c1)C1CCCCN1 (stereo not given),T/C,"dose: 6.25 mg/kg/injection, schedule: Q01DX009 (ip), vehicle: saline",101 % of control
same,T/C,"dose: 12.5 mg/kg/injection, schedule: Q01DX009 (ip), vehicle: saline with Tween-80",95 % of control
same,T/C,"dose: 12.5 mg/kg/injection, schedule: Q01DX009 (ip), vehicle: saline",103 % of control
same,T/C,"dose: 25.0 mg/kg/injection, schedule: Q01DX009 (ip), vehicle: saline with Tween-80",100 % of control
same,T/C,"dose: 25.0 mg/kg/injection, schedule: Q01DX009 (ip), vehicle: saline",107 % of control
CN(C)c1ccc(/C=N/NC(=O)c2ccccc2N)cc1,T/C,[11],103 % of control
same,T/C,[12],100 % of control
same,T/C,[13],98 % of control
CC(C)CCCC(C)C1CCC2C3CCC4C5Oc6ccccc6N=C5CCC4(C)C3CCC12C (stereo not given),T/C,"dose: 60.0 mg/kg/injection, schedule: Q01DX005 (ip), vehicle: Klucel (hydroxypropylcellulose) (HPC)",92 % of control
same,T/C,"dose: 120.0 mg/kg/injection, schedule: Q01DX005 (ip), vehicle: Klucel (hydroxypropylcellulose) (HPC)",97 % of control
same,T/C,"dose: 240.0 mg/kg/injection, schedule: Q01DX005 (ip), vehicle: Klucel (hydroxypropylcellulose) (HPC)",93 % of control
O=C(Nc1ccccc1)NC1CCCCCC1,T/C,"dose: 50.0 mg/kg/injection, schedule: Q01DX009 (ip), vehicle: saline",93 % of control
same,T/C,"dose: 100.0 mg/kg/injection, schedule: Q01DX009 (ip), vehicle: saline",98 % of control
same,T/C,"dose: 200.0 mg/kg/injection, schedule: Q01DX009 (ip), vehicle: saline",87 % of control
NC(=O)N/N=C1/CC(=O)N(c2ccccc2)C1c1ccccc1 (stereo not given),T/C,[11],93 % of control
same,T/C,[12],91 % of control
same,T/C,[13],92 % of control
CCOc1nc2ccc(NC(C)C(=O)N3CCN(CCc4ccccc4)CC3)cc2s1 (stereo not given),T/C,"dose: 50.0 mg/kg/injection, schedule: Q01DX005 (ip), vehicle: Klucel (hydroxypropylcellulose) (HPC)",100 % of control
same,T/C,"dose: 100.0 mg/kg/injection, schedule: Q01DX005 (ip), vehicle: Klucel (hydroxypropylcellulose) (HPC)",100 % of control
same,T/C,"dose: 200.0 mg/kg/injection, schedule: Q01DX005 (ip), vehicle: Klucel (hydroxypropylcellulose) (HPC)",112 % of control
CCCCCCCCCC(O)CCCCCCCCC,T/C,"dose: 100.0 mg/kg/injection, schedule: Q04DX003 (ip), vehicle: other",100 % of control
same,T/C,"dose: 200.0 mg/kg/injection, schedule: Q04DX003 (ip), vehicle: other",90 % of control
same,T/C,"dose: 400.0 mg/kg/injection, schedule: Q04DX003 (ip), vehicle: other",90 % of control
CCCCCCC(=O)/C=C/c1ccc(OCc2ccccc2)c(OCc2ccccc2)c1,T/C,"dose: 6.25 mg/kg/injection, schedule: Q01DX005 (ip), vehicle: saline with Tween-80",92 % of control
same,T/C,"dose: 12.5 mg/kg/injection, schedule: Q01DX005 (ip), vehicle: saline with Tween-80",92 % of control
O=C(NO)Nc1cc(Cl)cc(Cl)c1,T/C,[11],114 % of control
same,T/C,[12],114 % of control
COC1(OC)CC=COC1(OC)OC,T/C,"dose: 60.0 mg/kg/injection, schedule: Q01DX005 (ip), vehicle: saline",103 % of control
same,T/C,"dose: 120.0 mg/kg/injection, schedule: Q01DX005 (ip), vehicle: saline",105 % of control
same,T/C,"dose: 240.0 mg/kg/injection, schedule: Q01DX005 (ip), vehicle: saline",114 % of control
